Target: T1, human Trk A kinase (Homo sapiens, UniProt P04629)
T1 construct: HIS; made in house; host or cells: SF9 insect cells
Experiment: Trk A Assay (Alphascreen kinase assay)
Assay type: biochemical
Conditions: 70 μM ATP, PolyEY-biotin substrate, 20 minutes, room temperature, read-out: Trk inhibitory activity IC50
Experimental: After incubation of the kinase with a biotinylated substrate and adenosine triphosphate (ATP) for 20 minutes at room temperature, the kinase reaction was stopped by the addition of 30 mM ethylenediaminetetraacetic acid (EDTA). The reaction was performed in 384 well microtitre plates and the reaction products were detected with the addition of strepavidin coated Donor Beads and phosphotyrosine-specific antibodies coated Acceptor Beads using the EnVision Multilabel Plate Reader after an overnight incubation at room temperature.

T1 sequence (P04629 442-796): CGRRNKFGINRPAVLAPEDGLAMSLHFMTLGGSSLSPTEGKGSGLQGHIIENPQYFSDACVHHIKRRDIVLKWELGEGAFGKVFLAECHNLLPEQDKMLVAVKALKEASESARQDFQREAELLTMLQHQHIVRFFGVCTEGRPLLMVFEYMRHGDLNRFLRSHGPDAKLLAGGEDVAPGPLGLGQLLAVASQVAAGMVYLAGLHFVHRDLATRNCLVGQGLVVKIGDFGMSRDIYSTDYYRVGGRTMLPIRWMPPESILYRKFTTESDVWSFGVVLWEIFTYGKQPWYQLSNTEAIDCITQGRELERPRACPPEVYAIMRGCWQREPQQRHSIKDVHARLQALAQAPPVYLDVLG

C[C@H](Nc1ncc(F)c(Nc2cc(C3CC3)[nH]n2)n1)c1ccc(F)cn1 [Example 3, (S)-5-Fluoro-N^1-(5-cyclopropyl-1H-pyrazol-3-yl)-N^2-(1-(5-fluoropyridin-2-yl)ethyl)pyrimidine-2,4-diamine]
IC50: 10 nM

— patent US8114989B2, “Pyrazolylaminopyrimidine derivatives useful as tyrosine kinase inhibitors” (AstraZeneca AB, priority 2005, dated 2012)
